Reference: ChEMBL document CHEMBL1130335, “Comparative molecular field analysis of a series of paclitaxel analogues” (J Med Chem, 1997)

Experiment: Measured activity expressed as ID50 (analogue)/ID50 (paclitaxel), where ID50 is the concentration of compound leading to 50% inhibition of the rate microtubule disassembly
Type: functional

## CC(=O)O[C@@H]1C2=C(C)[C@@H](OC(=O)[C@H](O)[C@H](COc3ccccc3)NC(=O)c3ccccc3)C[C@@](O)([C@@H](OC(=O)c3ccccc3)[C@H]3[C@@](C)([C@@H](O)CC4OC[C@]43OC(C)=O)[C@H]1O)C2(C)C (stereo not given in full)
  Activity: 5.81

## CC(=O)O[C@@H]1C2=C(C)[C@@H](OC(=O)[C@H](O)[C@@H](NC(=O)OC(C)(C)C)c3ccccc3)C[C@@](O)([C@@H](OC(=O)c3ccccc3)[C@H]3[C@@](C)([C@@H](O)CC4OC[C@]43OC(C)=O)[C@H]1O)C2(C)C (stereo not given in full)
  Activity: 0.87

## CC(=O)O[C@@]12COC1C[C@H](O)[C@@]1(C)C(=O)[C@H](O)C3=C(C)[C@@H](OC(=O)[C@@H](O)Cc4ccccc4)C[C@@](O)([C@@H](OC(=O)c4ccccc4)[C@@H]12)C3(C)C (stereo not given in full)
  Activity: 3.5

## CC(=O)O[C@@H]1C2=C(C)[C@@H](OC(=O)[C@H](O)[C@@H](NC(=O)OC(C)(C)C)[C@H]3COC(C)(C)O3)C[C@@](O)([C@@H](OC(=O)c3ccccc3)[C@H]3[C@@](C)([C@@H](O)CC4OC[C@]43OC(C)=O)[C@H]1O)C2(C)C (stereo not given in full)
  Activity: 7.91

## CC(=O)O[C@H]1C(=O)[C@]2(C)[C@@H](O)CC3OC[C@@]3(OC(C)=O)[C@H]2[C@H](OC(=O)c2ccccc2)[C@]2(O)C[C@H](OC(=O)[C@H](O)[C@H](NC(=O)c3ccco3)c3ccccc3)C(C)=C1C2(C)C (stereo not given in full)
  Activity: 0.8

## CC(=O)N[C@@H](c1ccccc1)[C@@H](O)C(=O)O[C@H]1C[C@@]2(O)[C@@H](OC(=O)c3ccccc3)[C@H]3[C@@](C)([C@@H](O)CC4OC[C@]43OC(C)=O)[C@@H](O)[C@H](OC(C)=O)C(=C1C)C2(C)C (stereo not given in full)
  Activity: 3.17

## CC(=O)O[C@H]1C(=O)[C@]2(C)[C@@H](O)CC3OC[C@@]3(OC(C)=O)[C@H]2[C@H](OC(=O)c2ccccc2)[C@]2(O)C[C@H](OC(=O)[C@@H](NC(=O)OC(C)(C)C)[C@@H](O)c3ccccc3)C(C)=C1C2(C)C (stereo not given in full)
  Activity: 108

## CC(=O)O[C@H]1C(=O)[C@]2(C)[C@@H](O)CC3OC[C@@]3(OC(C)=O)[C@H]2[C@H](OC(=O)c2ccccc2)[C@]2(O)C[C@H](OC(=O)[C@H](O)[C@H](NC(=O)c3ccc(C)cc3)c3ccccc3)C(C)=C1C2(C)C (stereo not given in full)
  Activity: 1.1

## CC(=O)O[C@@]12COC1C[C@H](O)[C@@]1(C)C(=O)[C@H](O)C3=C(C)[C@@H](OC(=O)[C@H](O)[C@H](NC(=O)C4CCCC4)C(C)(C)C)C[C@@](O)([C@@H](OC(=O)c4ccccc4)[C@@H]12)C3(C)C (stereo not given in full)
  Activity: 1.5

## CCCC[C@H](NC(=O)OC(C)(C)C)[C@@H](O)C(=O)O[C@H]1C[C@@]2(O)[C@@H](OC(=O)c3ccccc3)[C@H]3[C@@](C)([C@@H](O)CC4OC[C@]43OC(C)=O)[C@@H](O)[C@H](OC(C)=O)C(=C1C)C2(C)C (stereo not given in full)
  Activity: 9.74

## CC(=O)O[C@@]12COC1C[C@H](O)[C@@]1(C)C(=O)[C@H](O)C3=C(C)[C@@H](OC(=O)[C@H](O)[C@@H](CC(C)(C)C)NC(=O)OC(C)(C)C)C[C@@](O)([C@@H](OC(=O)c4ccccc4)[C@@H]12)C3(C)C (stereo not given in full)
  Activity: 1.45

## CC(=O)O[C@H]1C(=O)[C@]2(C)[C@@H](O)CC3OC[C@@]3(OC(C)=O)[C@H]2[C@H](OC(=O)c2ccccc2)[C@]2(O)C[C@H](OC(=O)[C@H](O)[C@H](NC(=O)C(C)(C)C)c3ccccc3)C(C)=C1C2(C)C (stereo not given in full)
  Activity: 2.6

## CC(=O)O[C@@]12COC1C[C@H](O)[C@@]1(C)C(=O)[C@H](O)C3=C(C)[C@@H](OC(=O)[C@H](O)[C@H](NC(=O)N(C)c4ccc[nH]4)C(C)(C)C)C[C@@](O)([C@@H](OC(=O)c4ccccc4)[C@@H]12)C3(C)C (stereo not given in full)
  Activity: 0.96

## CC(=O)O[C@@H]1C2=C(C)[C@@H](OC(=O)[C@H](O)[C@@H](NC(=O)NC(C)(C)C)c3ccccc3)C[C@@](O)([C@@H](OC(=O)c3ccccc3)[C@H]3[C@@](C)([C@@H](O)CC4OC[C@]43OC(C)=O)[C@H]1O)C2(C)C (stereo not given in full)
  Activity: 1.06

## CC(=O)O[C@@]12COC1C[C@H](O)[C@@]1(C)C(=O)[C@H](O)C3=C(C)[C@@H](OC(=O)[C@H](NC(=O)OC(C)(C)C)[C@H](O)c4ccccc4)C[C@@](O)([C@@H](OC(=O)c4ccccc4)[C@@H]12)C3(C)C (stereo not given in full)
  Activity: 10

## CC(=O)O[C@@]12COC1C[C@H](O)[C@@]1(C)C(=O)[C@H](O)C3=C(C)[C@@H](OC(=O)[C@H](O)[C@@H](CC(C)C)NC(=O)OC(C)(C)C)C[C@@](O)([C@@H](OC(=O)c4ccccc4)[C@@H]12)C3(C)C (stereo not given in full)
  Activity: 0.78

## CO[C@H]1[C@H](OC(C)=O)C2=C(C)[C@@H](OC(=O)[C@H](O)[C@@H](NC(=O)c3ccccc3)c3ccccc3)C[C@@](O)([C@@H](OC(=O)c3ccccc3)[C@H]3[C@@]1(C)[C@@H](O)CC1OC[C@]13OC(C)=O)C2(C)C (stereo not given in full)
  Activity: 0.35

## CC(=O)O[C@@]12COC1C[C@H](O)[C@@]1(C)C(=O)[C@H](O)C3=C(C)[C@@H](OC(=O)[C@@H](O)[C@H](N)c4ccccc4)C[C@@](O)([C@@H](OC(=O)c4ccccc4)[C@@H]12)C3(C)C (stereo not given in full)
  Activity: 30

## CO[C@H]1CC2OC[C@@]2(OC(C)=O)[C@H]2[C@H](OC(=O)c3ccccc3)[C@]3(O)C[C@H](OC(=O)[C@H](O)[C@@H](NC(=O)OC(C)(C)C)c4ccccc4)C(C)=C([C@@H](OC(C)=O)[C@H](O)[C@]12C)C3(C)C (stereo not given in full)
  Activity: 1.74

## CC(=O)O[C@H]1C(=O)[C@]2(C)[C@@H](O)CC3OC[C@@]3(OC(C)=O)[C@H]2[C@H](OC(=O)c2ccccc2)[C@]2(O)C[C@H](OC(=O)[C@H](O)[C@H](NC(=O)c3ccc(C(F)(F)F)cc3)c3ccccc3)C(C)=C1C2(C)C (stereo not given in full)
  Activity: 6

## CC(=O)O[C@@]12COC1C[C@H](O)[C@@]1(C)C(=O)[C@H](O)C3=C(C)[C@@H](OC(=O)[C@H](O)[C@@H](/C=C/c4ccccc4)NC(=O)OC(C)(C)C)C[C@@](O)([C@@H](OC(=O)c4ccccc4)[C@@H]12)C3(C)C (stereo not given in full)
  Activity: 1.45

## CO[C@H]1CC2OC[C@@]2(OC(C)=O)[C@H]2[C@H](OC(=O)c3ccccc3)[C@]3(O)C[C@H](OC(=O)[C@H](O)[C@@H](NC(=O)c4ccccc4)c4ccccc4)C(C)=C([C@@H](OC(C)=O)[C@H](O)[C@]12C)C3(C)C (stereo not given in full)
  Activity: 0.92

## COC(=O)[C@@H](C(=O)O[C@H]1C[C@@]2(O)[C@@H](OC(=O)c3ccccc3)[C@H]3[C@](C)(C(=O)[C@H](O)C(=C1C)C2(C)C)[C@@H](O)CC1OC[C@]13OC(C)=O)[C@H](NC(=O)OC(C)(C)C)c1ccccc1 (stereo not given in full)
  Activity: 10

## CC(=O)O[C@H]1C(=O)[C@]2(C)[C@@H](O)CC3OC[C@@]3(OC(C)=O)[C@H]2[C@H](OC(=O)C2CCCCC2)[C@]2(O)C[C@H](OC(=O)[C@H](O)[C@@H](NC(=O)C3CCCCC3)C3CCCCC3)C(C)=C1C2(C)C (stereo not given in full)
  Activity: 0.47

## CC(=O)O[C@@]12COC1C[C@H](O)[C@@]1(C)C(=O)[C@H](O)C3=C(C)[C@@H](OC(=O)[C@H](O)[C@H](NC(=O)c4cccs4)C(C)(C)C)C[C@@](O)([C@@H](OC(=O)c4ccccc4)[C@@H]12)C3(C)C (stereo not given in full)
  Activity: 0.42

## CC(=O)O[C@@]12COC1C[C@H](O)[C@@]1(C)C(=O)[C@H](O)C3=C(C)[C@@H](OC(=O)[C@H](O)[C@@H](NC(=O)OC(C)(C)C)c4ccccc4)[C@H](O)[C@@](O)([C@@H](OC(=O)c4ccccc4)[C@@H]12)C3(C)C (stereo not given in full)
  Activity: 0.8

## C/C=C/C(=O)O[C@H]1C[C@@]2(O)[C@@H](OC(=O)c3ccccc3)[C@H]3[C@](C)(C(=O)[C@H](OC(C)=O)C(=C1C)C2(C)C)[C@@H](O)CC1OC[C@]13OC(C)=O (stereo not given in full)
  Activity: 100

## CC(=O)O[C@H]1C(=O)[C@]2(C)[C@@H](O)CC3OC[C@@]3(OC(C)=O)[C@H]2[C@H](OC(=O)c2ccccc2)[C@]2(O)C[C@H](OC(=O)C(O)C(C)O)C(C)=C1C2(C)C (stereo not given in full)
  Activity: 60

## COC(=O)[C@H]1CC2OC[C@@]2(OC(C)=O)[C@H]2[C@H](OC(=O)c3ccccc3)[C@]3(O)C[C@H](OC(=O)[C@H](O)[C@@H](NC(=O)c4ccccc4)c4ccccc4)C(C)=C([C@@H](OC(C)=O)[C@H](C(=O)OC)[C@]12C)C3(C)C (stereo not given in full)
  Activity: 0.91

## CC(=O)O[C@H]1C(=O)[C@]2(C)[C@@H](O)CC3OC[C@@]3(OC(C)=O)[C@H]2[C@H](OC(=O)C2CCCCC2)[C@]2(O)C[C@H](OC(=O)[C@H](O)[C@@H](NC(=O)c3ccccc3)c3ccccc3)C(C)=C1C2(C)C (stereo not given in full)
  Activity: 1.7

## CC(=O)O[C@@]12COC1C[C@H](O)[C@@]1(C)C(=O)[C@H](O)C3=C(C)[C@@H](OC(=O)[C@H](O)[C@@H](NC(=O)OC(C)(C)C)c4ccccc4)[C@@H]4OC(C)(C)O[C@]4([C@@H](OC(=O)c4ccccc4)[C@@H]12)C3(C)C (stereo not given in full)
  Activity: 3

## CC[C@H](NC(=O)OC(C)(C)C)[C@@H](O)C(=O)O[C@H]1C[C@@]2(O)[C@@H](OC(=O)c3ccccc3)[C@H]3[C@@](C)([C@@H](O)CC4OC[C@]43OC(C)=O)[C@@H](O)[C@H](OC(C)=O)C(=C1C)C2(C)C (stereo not given in full)
  Activity: 0.61

## CC(=O)O[C@H]1C(=O)[C@]2(C)[C@@H](O)CC3OC[C@@]3(OC(C)=O)[C@H]2[C@H](OC(=O)c2ccccc2)[C@]2(O)C[C@H](OC(=O)[C@H](O)[C@H](NC(=O)c3ccccc3)c3ccc(Cl)cc3)C(C)=C1C2(C)C (stereo not given in full)
  Activity: 2.4

## CO[C@H]1[C@H](OC(C)=O)C2=C(C)[C@@H](OC(=O)[C@H](O)[C@@H](NC(=O)OC(C)(C)C)c3ccccc3)C[C@@](O)([C@@H](OC(=O)c3ccccc3)[C@H]3[C@@]1(C)[C@@H](O)CC1OC[C@]13OC(C)=O)C2(C)C (stereo not given in full)
  Activity: 0.51

## CC(=O)O[C@@]12COC1C[C@H](O)[C@@]1(C)C(=O)C[C@@]34O[C@]3(C)[C@@H](OC(=O)[C@H](O)[C@@H](NC(=O)c3ccccc3)c3ccccc3)C[C@@](O)([C@@H](OC(=O)c3ccccc3)[C@@H]12)C4(C)C (stereo not given in full)
  Activity: 0.66
